# Test results from patent publication US4446149A, “Medicine for treatment of cervical erosion” (priority 1981, dated 1984).
# “Also recorded” adds a separate entry of the source. Read-outs that look alike come from different tables or passages of the source.
# How the values were obtained:
# [1] = Acute toxicity of L-carnosine (peritoneal and oral); type: in vivo; details: mouse, in vivo; for LD50 at 72 h: dd strain male mice
# Experimental: (§1) […] LD50 was computed by the Van der Waerden method based on the number of dead mice after 72 hours. In the examination, L-carnosine was diluted with a physiological saline so that its administration concentration would be 0.1-0.3 ml/10 g.
# [2] = test system: dd strain male mice; assay: as above; type: in vivo
# Experimental: as §1
# [3] = cited from earlier work
# [4] = cited from earlier work; remark: listed apart in the source
# [5] = test system: carnosinase; details: taken into the body; with the aid of carnosinase; cited from earlier work
# [6] = peritoneal 15,000 mg/kg, after about 30 minutes
compound,measurement,setting,value
"NCCC(=O)N[C@@H](Cc1cnc[nH]1)C(=O)O [L-carnosine, β-alanyl-L-histidine]",mortality at 12 h,"[1]; 15000 mg/kg, oral 15,000 mg/kg, after 12 hours, read-out: mice died",10%
same,mortality at 2 h,"[1]; ip, 15000 mg/kg, peritoneal 15,000 mg/kg, after 2 hours, read-out: experimental animals died",80%
same,LD50 at 72 h,"[1]; ip, peritoneal, Van der Waerden method, 72 hours (75-hour value elsewhere in the source), read-out: LD50 at 95% level of confidence",9090 mg/kg
same,LD50 at 72 h,"[1]; oral, (the minimum lethal dose), read-out: LD50",> 14900 mg/kg
same,toxicity (overall),"[2]; acute toxicity test, dd strain male mice",quite low toxicity
same,appreciable effect (symptoms),"[2]; oral 15,000 mg/kg",did not show any appreciable effect
same,symptoms when further advanced,"[2]; peritoneal 15,000 mg/kg","the animals repeated horizontal rollings and upon contact stimulation the reflex became hyperreactive with an attendant spasm, leading to ultimate death"
same,symptoms: raising of the tails and clonospasm,"[2]; peritoneal 15,000 mg/kg, about 30 minutes after administration",seen in as many as half of the experimental animals
same,experimental animals died,"[2]; peritoneal 15,000 mg/kg, after 1 hour and 30 minutes",Half
same,experimental animals died,"[2]; peritoneal 15,000 mg/kg, after 5 hours",all of the experimental animals died
same,symptoms: frontal or escape reflexes,[2]; [6],no frontal or escape reflexes
same,symptoms: spontaneous movement and respiration,[2]; [6],a reduction in spontaneous movement accompanied by an irregular or decreased number of respirations
same,LD100,"[2]; peritoneal, mice","15,000 mg/kg"
same,solubility in water,[3],easily soluble in water; also recorded: readily soluble in water
same,pH value of its aqueous solution,[4],8.0-8.5
same,metabolism,[5],"decomposed, with the aid of carnosinase, into L-histidine and β-alanine"
